This passage reports IC50 results from patent US20260062387A1, “SALT-INDUCIBLE KINASE INHIBITOR COMPOUND AND PHARMACEUTICAL COMPOSITION INCLUDING THE SAME” (MITSUBISHI TANABE PHARMA CORPORATION, priority 2023, published 2026).

The structures appear in SMILES notation.

What all share (format): biochemical
One assay has as its target GST-tagged SIK1 (Homo sapiens (Human), UniProt P57059). Nature of the assay: SIK1 inhibition test (ADP-Glo Max Assay). Conditions: enzyme 20 nM, AMARA Peptide 200 μM, ATP 1 mM, 2 hours room temperature. The method in brief: (§1)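 ADP formed was detected by luciferase luminescence after a 2 h room-temperature reaction with 1 mM ATP, 5 mM MgCl2 and AMARA peptide at 200 μM (SIK1, SIK2) or 100 μM (SIK3). Final GST-enzyme levels were 20 nM SIK1, 3 nM SIK2 and 100 nM SIK3. IC50 came from 16-point concentration-response data.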
A general note: In ADP-Glo the light output rises with the ADP produced.

The target in another assay is GST-tagged SIK2 (Homo sapiens (Human), UniProt Q9H0K1). Nature of the assay: SIK2 inhibition test (ADP-Glo Max Assay). Conditions: enzyme 3 nM, AMARA Peptide 200 μM, ATP 1 mM, 2 hours room temperature. The essentials: as §1
Chain of GST-tagged SIK2 (Q9H0K1 whole entry): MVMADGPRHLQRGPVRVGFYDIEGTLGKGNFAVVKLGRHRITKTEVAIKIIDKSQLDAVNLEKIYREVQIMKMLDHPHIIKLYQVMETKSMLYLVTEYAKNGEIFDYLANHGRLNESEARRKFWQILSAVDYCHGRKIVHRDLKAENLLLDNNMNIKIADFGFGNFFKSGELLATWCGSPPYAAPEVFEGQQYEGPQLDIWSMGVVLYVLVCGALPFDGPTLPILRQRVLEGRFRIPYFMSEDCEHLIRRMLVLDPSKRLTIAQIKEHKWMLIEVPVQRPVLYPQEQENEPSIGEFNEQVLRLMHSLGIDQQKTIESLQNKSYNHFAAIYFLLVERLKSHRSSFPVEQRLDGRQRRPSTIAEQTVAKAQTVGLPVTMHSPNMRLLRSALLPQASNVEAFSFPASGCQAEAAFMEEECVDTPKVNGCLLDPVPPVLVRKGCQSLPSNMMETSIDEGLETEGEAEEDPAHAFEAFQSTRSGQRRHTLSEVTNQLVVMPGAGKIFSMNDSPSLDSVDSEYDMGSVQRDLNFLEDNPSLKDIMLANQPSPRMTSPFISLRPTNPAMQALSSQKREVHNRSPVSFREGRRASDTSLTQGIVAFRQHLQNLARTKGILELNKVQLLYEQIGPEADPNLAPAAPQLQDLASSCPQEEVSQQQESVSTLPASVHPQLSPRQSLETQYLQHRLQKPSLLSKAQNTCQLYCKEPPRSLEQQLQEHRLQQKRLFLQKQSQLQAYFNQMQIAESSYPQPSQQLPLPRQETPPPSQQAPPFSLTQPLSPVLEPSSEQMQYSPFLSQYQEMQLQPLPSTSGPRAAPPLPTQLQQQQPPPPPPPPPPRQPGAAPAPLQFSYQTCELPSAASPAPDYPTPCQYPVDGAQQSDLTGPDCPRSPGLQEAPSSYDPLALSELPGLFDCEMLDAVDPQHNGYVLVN
The target in another assay is GST-tagged SIK3 (Homo sapiens (Human), UniProt Q9Y2K2). Nature of the assay: SIK3 inhibition test (ADP-Glo Max Assay). Conditions: enzyme 100 nM, AMARA Peptide 100 μM, ATP 1 mM, 2 hours room temperature. The method in brief:
as §1

Chain of GST-tagged SIK3 (Q9Y2K2 whole entry): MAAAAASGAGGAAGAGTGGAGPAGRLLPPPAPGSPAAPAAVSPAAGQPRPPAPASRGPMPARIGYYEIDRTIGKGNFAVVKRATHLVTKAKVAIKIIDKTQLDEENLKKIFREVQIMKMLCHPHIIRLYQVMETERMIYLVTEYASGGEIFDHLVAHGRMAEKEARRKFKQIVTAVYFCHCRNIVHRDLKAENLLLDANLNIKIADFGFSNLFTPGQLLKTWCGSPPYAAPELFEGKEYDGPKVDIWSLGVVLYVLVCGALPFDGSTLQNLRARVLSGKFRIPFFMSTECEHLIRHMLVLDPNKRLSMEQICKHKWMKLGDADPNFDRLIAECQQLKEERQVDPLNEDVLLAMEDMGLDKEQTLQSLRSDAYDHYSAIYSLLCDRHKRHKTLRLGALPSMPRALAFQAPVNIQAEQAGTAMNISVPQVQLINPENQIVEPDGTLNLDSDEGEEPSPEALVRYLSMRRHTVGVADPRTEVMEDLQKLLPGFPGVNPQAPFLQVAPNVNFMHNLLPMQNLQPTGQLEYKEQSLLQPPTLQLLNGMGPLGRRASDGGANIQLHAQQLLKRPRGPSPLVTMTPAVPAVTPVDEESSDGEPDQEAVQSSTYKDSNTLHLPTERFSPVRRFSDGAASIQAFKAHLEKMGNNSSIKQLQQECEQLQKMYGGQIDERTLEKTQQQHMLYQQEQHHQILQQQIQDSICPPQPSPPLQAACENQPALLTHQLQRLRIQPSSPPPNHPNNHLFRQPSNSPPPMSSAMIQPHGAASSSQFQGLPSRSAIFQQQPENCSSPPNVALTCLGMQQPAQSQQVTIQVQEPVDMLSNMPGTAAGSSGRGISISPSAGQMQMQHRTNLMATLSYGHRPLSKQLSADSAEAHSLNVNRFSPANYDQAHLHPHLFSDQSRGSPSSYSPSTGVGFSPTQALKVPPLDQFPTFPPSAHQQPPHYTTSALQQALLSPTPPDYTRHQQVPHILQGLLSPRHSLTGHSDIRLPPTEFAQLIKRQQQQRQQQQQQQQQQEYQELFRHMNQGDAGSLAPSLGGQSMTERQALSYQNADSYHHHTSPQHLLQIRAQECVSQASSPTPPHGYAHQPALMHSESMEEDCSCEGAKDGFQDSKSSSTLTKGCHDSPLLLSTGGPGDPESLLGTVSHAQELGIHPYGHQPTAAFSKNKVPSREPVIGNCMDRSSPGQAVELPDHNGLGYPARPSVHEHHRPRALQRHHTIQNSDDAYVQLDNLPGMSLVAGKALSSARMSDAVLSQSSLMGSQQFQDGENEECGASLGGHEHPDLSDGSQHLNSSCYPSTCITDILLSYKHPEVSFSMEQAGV
Chain of GST-tagged SIK1 (P57059 whole entry): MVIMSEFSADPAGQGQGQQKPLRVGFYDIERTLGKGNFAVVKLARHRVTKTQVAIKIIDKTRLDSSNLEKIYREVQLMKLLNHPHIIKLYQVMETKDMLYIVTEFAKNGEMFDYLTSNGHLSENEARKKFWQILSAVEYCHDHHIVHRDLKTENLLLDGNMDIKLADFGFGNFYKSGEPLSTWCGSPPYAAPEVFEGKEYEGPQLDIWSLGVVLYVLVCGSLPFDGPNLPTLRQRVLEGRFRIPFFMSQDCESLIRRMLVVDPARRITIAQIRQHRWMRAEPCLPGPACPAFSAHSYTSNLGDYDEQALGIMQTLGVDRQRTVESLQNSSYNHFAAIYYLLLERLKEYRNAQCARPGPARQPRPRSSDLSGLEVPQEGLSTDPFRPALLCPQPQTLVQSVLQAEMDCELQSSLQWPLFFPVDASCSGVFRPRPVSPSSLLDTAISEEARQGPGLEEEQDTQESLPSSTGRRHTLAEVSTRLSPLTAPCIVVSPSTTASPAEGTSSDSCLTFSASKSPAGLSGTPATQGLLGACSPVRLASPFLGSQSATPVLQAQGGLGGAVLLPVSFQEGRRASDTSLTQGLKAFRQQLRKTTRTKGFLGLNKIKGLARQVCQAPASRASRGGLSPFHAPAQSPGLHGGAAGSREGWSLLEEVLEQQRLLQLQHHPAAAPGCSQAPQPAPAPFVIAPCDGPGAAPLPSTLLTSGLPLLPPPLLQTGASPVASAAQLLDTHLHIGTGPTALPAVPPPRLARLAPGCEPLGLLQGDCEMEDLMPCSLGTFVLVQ

Regarding `COc1cc(-c2c3c(C(F)F)cc(-c4cnn(CC5(O)CCC5)c4)cc3nn2C)cc(OC(F)F)c1C(=O)N[C@@H]1CC1(F)F` [Example 117, N-[(1R)-2,2-difluorocyclopropyl]-2-(difluoromethoxy)-4-[4-(difluoromethyl)-6-[1-[(1-hydroxycyclobutyl)methyl]pyrazol-4-yl]-2-methylindazol-3-yl]-6-methoxybenzamide], the IC50 on GST-tagged SIK1 was 12.5 nM; on GST-tagged SIK2, 9.3 nM; against GST-tagged SIK3, 1 nM.
In the same order, the values of `CCn1cc(-c2cc(C(F)F)c3c(-c4cc(OC)c(C(=O)N[C@@H]5CC5(F)F)c(OC(F)F)c4)n(C)nc3c2)cn1` [Example 116, N-[(1R)-2,2-difluorocyclopropyl]-2-(difluoromethoxy)-4-[4-(difluoromethyl)-6-(1-ethylpyrazol-4-yl)-2-methylindazol-3-yl]-6-methoxybenzamide] are 16.1 nM, 5.8 nM and 1.1 nM.
With `CCCn1cc(-c2cc(C(F)F)c3c(-c4cc(OC)c(C(N)=O)c(OC(F)F)c4)n(C)nc3c2)cn1` [Example 113, 2-(difluoromethoxy)-4-[4-(difluoromethyl)-2-methyl-6-(1-propylpyrazol-4-yl)indazol-3-yl]-6-methoxybenzamide], the results for the IC50 at GST-tagged SIK1, against GST-tagged SIK2 and against GST-tagged SIK3 were 19.7 nM, 15.6 nM and 2.7 nM, respectively.
In the same order, the values of `COc1cc(-c2c3c(OC(F)F)cc(-c4cn(C)nn4)cc3nn2C)cc(OC(F)F)c1C(=O)N1CC(O)(C(F)F)C1` [Example 63, [2-(difluoromethoxy)-4-[4-(difluoromethoxy)-2-methyl-6-(1-methyltriazol-4-yl)indazol-3-yl]-6-methoxyphenyl]-[3-(difluoromethyl)-3-hydroxyazetidin-1-yl]methanone] are 7.5 nM, 4.3 nM and 9.7 nM.
Take `COc1cc(-c2c3c(C#N)cc(-c4cnn(CC(=O)N5CCC(F)(F)C5)c4)cc3nn2C)cc(OC(F)F)c1C(=O)NCC1(F)CC1` [Example 101, 4-[4-cyano-6-[1-[2-(3,3-difluoropyrrolidin-1-yl)-2-oxoethyl]pyrazol-4-yl]-2-methylindazol-3-yl]-2-(difluoromethoxy)-N-[(1-fluorocyclopropyl)methyl]-6-methoxybenzamide]: the IC50 on GST-tagged SIK1 came to 15 nM; against GST-tagged SIK2, 5.8 nM; against GST-tagged SIK3, 12 nM.
In the same order, the values of `COc1cc(-c2c3c(OCc4cnc(C)s4)cc(-c4cnn(C)c4)cc3nn2C)cc(OC(F)F)c1C(=O)N1CC(O)(C(F)(F)F)C1` [Example 49, [2-(difluoromethoxy)-6-methoxy-4-[2-methyl-6-(1-methylpyrazol-4-yl)-4-[(2-methyl-1,3-thiazol-5-yl)methoxy]indazol-3-yl]phenyl]-[3-hydroxy-3-(trifluoromethyl)azetidin-1-yl]methanone] are 3.9 nM, 11.2 nM and 9.7 nM.
In the same order, the values of `COc1cc(-c2c3c(C#N)cc(-c4cnn(CC5COC5)c4)cc3nn2C)cc(OC(F)F)c1C(=O)NCC1(F)CC1` [Example 59, 4-[4-cyano-2-methyl-6-[1-(oxetan-3-ylmethyl)pyrazol-4-yl]indazol-3-yl]-2-(difluoromethoxy)-N-[(1-fluorocyclopropyl)methyl]-6-methoxybenzamide] are 14.1 nM, 3.8 nM and 6.6 nM.
In the same order, the values of `COc1cc(-c2cnn(C)c2)cc2nn(C)c(-c3cc(OC(F)F)c4c(c3)C(C)CNC4=O)c12` (stereo not drawn) [Example 161, 8-(difluoromethoxy)-6-[4-methoxy-2-methyl-6-(1-methylpyrazol-4-yl)indazol-3-yl]-4-methyl-3,4-dihydro-2H-isoquinolin-1-one] are 5.6 nM, 1.3 nM and 10 nM.
Regarding `COc1cc(-c2c3c(C#N)cc(-c4cnn(CC(C)(C)O)c4)cc3nn2C)cc(OC(F)F)c1C(=O)N1CC(O)(C(F)(F)F)C1` [Example 16], the IC50 was 8.7 nM on GST-tagged SIK1, 13.8 nM against GST-tagged SIK2 and 3.2 nM on GST-tagged SIK3.
Take `COc1cc(-c2c3c(C#N)cc(-c4cnn(CC5CC5)c4)cc3nn2C)cc2c1C(=O)NC[C@@H]2C` (single isomer, unassigned) [Example 170]: the IC50 stood at 8.5 nM against GST-tagged SIK1, 1.7 nM against GST-tagged SIK2 and 4.3 nM against GST-tagged SIK3.
The corresponding values for `COc1cc(-c2cnn(C)c2)cc2nn(C)c(-c3cc(OC(F)F)c4c(c3)[C@@H](C)CNC4=O)c12` (single isomer, unassigned) [Example 166] are 11.9 nM, 3.1 nM and 9.6 nM.
The corresponding values for `COc1cc(-c2c3c(C#N)cc(-c4cnn(CC(F)F)c4)cc3nn2C)cc(OC(F)F)c1C(=O)N[C@@H]1C[C@@H]1F` [Example 31, 4-[4-cyano-6-[1-(2,2-difluoroethyl)pyrazol-4-yl]-2-methylindazol-3-yl]-2-(difluoromethoxy)-N-[(1R, 2S)-2-fluorocyclopropyl]-6-methoxybenzamide] are 3.7 nM, 3.3 nM and 7.8 nM.
The corresponding values for `COc1cc(-c2c3c(C#N)cc(-c4cnn(CCC(C)(C)O)c4)cc3nn2C)cc(OC(F)F)c1C(N)=O` [Example 142] are 16.2 nM, 1.9 nM and 2.7 nM.
On to `Cn1cc(-c2cc(C#N)c3c(-c4cc(OC(F)F)c5c(c4)C(C)(C)CNC5=O)n(C)nc3c2)cn1` [Example 162, 3-[8-(difluoromethoxy)-4,4-dimethyl-1-oxo-2,3-dihydroisoquinolin-6-yl]-2-methyl-6-(1-methylpyrazol-4-yl)indazol-4-carbonitrile], for which the figures for the IC50 against GST-tagged SIK1, on GST-tagged SIK2 and against GST-tagged SIK3 were 8.1 nM, 2.5 nM and 3.2 nM, respectively.
The corresponding values for `COc1cc(-c2c3c(C#N)cc(-c4cn[nH]c4)cc3nn2C)cc(OC(F)F)c1C(=O)N1CC(O)(C(F)(F)F)C1` [Example 70, 3-[3-(difluoromethoxy)-4-[3-hydroxy-3-(trifluoromethyl)azetidin-1-carbonyl]-5-methoxyphenyl]-2-methyl-6-(1H-pyrazol-4-yl)indazole-4-carbonitrile] are 15.3 nM, 11.2 nM and 3.7 nM.
The corresponding values for `COc1cc(-c2c3c(C(F)F)cc(-c4cnn(CC(C)(C)O)c4)cc3nn2C)cc(OC(F)F)c1C(=O)N[C@@H]1CC1(F)F` [Example 109] are 18 nM, 18.1 nM and 2.3 nM.
For `CCn1cc(-c2cc(C#N)c3c(-c4cc(OC)c(C(=O)N5CC(O)(C(F)(F)F)C5)c(OC(F)F)c4)n(C)nc3c2)cn1` [Example 15, 3-[3-(difluoromethoxy)-4-[3-hydroxy-3-(trifluoromethyl)azetidin-1-carbonyl]-5-methoxyphenyl]-6-(1-ethylpyrazol-4-yl)-2-methylindazole-4-carbonitrile], the IC50 against GST-tagged SIK1 turned out to be 9.2 nM; against GST-tagged SIK2, 10.3 nM; against GST-tagged SIK3 it was 1.4 nM.
The corresponding values for `COc1cc(-c2c3c(C#N)cc(-c4cnn(C)c4)cc3nn2C)cc(OC(F)F)c1C(=O)N1CC(N)(C(F)(F)F)C1` [Example 36, 3-[4-[3-amino-3-(trifluoromethyl)azetidin-1-carbonyl]-3-(difluoromethoxy)-5-methoxyphenyl]-2-methyl-6-(1-methylpyrazol-4-yl)indazole-4-carbonitrile] are 12.5 nM, 15.4 nM and 10.2 nM.
Regarding `COc1cc(-c2c3c(C#N)cc(-c4cnn(C)c4)cc3nn2C)cc(OC(F)F)c1C(=O)N1CC(C#N)(C(F)F)C1` [Example 39, 3-[4-[3-cyano-3-(difluoromethyl)azetidin-1-carbonyl]-3-(difluoromethoxy)-5-methoxyphenyl]-2-methyl-6-(1-methylpyrazol-4-yl)indazole-4-carbonitrile], the IC50 stood at 16.2 nM on GST-tagged SIK1, 18.2 nM against GST-tagged SIK2 and 9.4 nM against GST-tagged SIK3.
The corresponding values for `COc1cc(-c2c3c(OCC4CC4)cc(-c4cnn(C)c4)cc3nn2C)cc(OC(F)F)c1C(=O)N1CC(O)(C(F)(F)F)C1` [Example 29, [4-[4-(cyclopropylmethoxy)-2-methyl-6-(1-methylpyrazol-4-yl)indazol-3-yl]-2-(difluoromethoxy)-6-methoxyphenyl]-[3-hydroxy-3-(trifluoromethyl)azetidin-1-yl]methanone] are 8.6 nM, 10.3 nM and 13.2 nM.
The corresponding values for `COc1cc(-c2c3c(C#N)cc(-c4cnn(C)c4)cc3nn2C)cc2c1C(=O)NCC2C` (stereo not drawn) [Example 77, 3-(8-methoxy-4-methyl-1-oxo-3,4-dihydro-2H-isoquinolin-6-yl)-2-methyl-6-(1-methylpyrazol-4-yl)indazol-4-carbonitrile] are 11.8 nM, 5.2 nM and 10.1 nM.
For `COc1cc(-c2c3c(C#N)cc(-c4cnn(CCN(C)C)c4)cc3nn2C)cc(OC(F)F)c1C(=O)N[C@@H]1C[C@@H]1F` [Example 19, 4-[4-cyano-6-[1-[2-(dimethylamino)ethyl]pyrazol-4-yl]-2-methylindazol-3-yl]-2-(difluoromethoxy)-N-[(1R,2S)-2-fluorocyclopropyl]-6-methoxybenzamide], the IC50 was determined as 2.5 nM against GST-tagged SIK1, 1.3 nM against GST-tagged SIK2 and 8.7 nM against GST-tagged SIK3.
As for `COc1cc(-c2c3c(C#N)cc(-c4cnn(CC(C)(C)O)c4)cc3nn2C)cc(OC(F)F)c1C(=O)N[C@@H]1CC1(F)F` [Example 114], the IC50 at GST-tagged SIK1 came to 12.6 nM; against GST-tagged SIK2, 4.1 nM; on GST-tagged SIK3, 0.7 nM.

The term IC50 denotes the point on the concentration scale where inhibition reaches its midpoint. Low readings indicate higher potency, high ones lower potency.
